How the values were obtained:
Carbonic anhydrase 1 = Carbonic anhydrase 1 (Homo sapiens, UniProt P00915)
Carbonic anhydrase 4 = Carbonic anhydrase 4 (Homo sapiens, UniProt P22748)
Oryctolagus cuniculus [1] = assay: Compound was evaluated in vivo in normotensive rabbits (23.5+/-2.6 mmHg) for the intraocular pressure (IOP) lowering 30 min after topical administration with one drop of Carbonic anhydrase inhibitor at a pH 7.0; assay type: functional, Eye
Oryctolagus cuniculus [2] = assay: Compound was evaluated in vivo in normotensive rabbits (23.5+/-2.6 mmHg) for the intraocular pressure (IOP) lowering 90 min after topical administration with one drop of Carbonic hydrase inhibitor at a pH 7.5; assay type: functional, Eye
Oryctolagus cuniculus [3] = assay: In vivo activity in normotensive rabbits (23.5+/-2.6 mmHg) for the intraocular pressure (IOP) lowering 90 min after topical administration with one drop of Carbonic anhydrase inhibitor at a pH 7; assay type: functional, Eye
Oryctolagus cuniculus [4] = assay: In vivo activity in normotensive rabbits (23.5+/-2.6 mmHg) for the intraocular pressure (IOP) lowering 60 min after topical administration with one drop of Carbonic anhydrase inhibitor at a pH 7; assay type: functional, Eye
Oryctolagus cuniculus [5] = assay: In vivo activity in normotensive rabbits (23.5+/-2.6 mmHg) for the intraocular pressure (IOP) lowering 30 min after topical administration with one drop of Carbonic anhydrase inhibitor at a pH 7; assay type: functional, Eye
Oryctolagus cuniculus [6] = assay: In vivo activity in glaucomatous rabbits (33.5+/-3.0 mmHg) for the intraocular pressure (IOP) lowering 30 min after topical administration with one drop of Carbonic anhydrase at a pH 7.0; assay type: functional, Eye
[7] = octanol/water
[8] = not given; remark: listed apart in the source
Oryctolagus cuniculus [9] = assay: In vivo activity in glaucomatous rabbits (33.5+/-3.0 mmHg) for the intraocular pressure (IOP) lowering 90 min after topical administration with one drop of Carbonic anhydrase at a pH 7.0; assay type: functional, Eye
Oryctolagus cuniculus [10] = assay: Compound was evaluated in vivo in normotensive rabbits (23.5+/-2.6 mmHg) for the intraocular pressure (IOP) lowering 90 min after topical administration with one drop of Carbonic anhydrase inhibitor at a pH 7; assay type: functional, Eye
Oryctolagus cuniculus [11] = assay: In vivo activity in normotensive rabbits (23.5+/-2.6 mmHg) for the intraocular pressure (IOP) lowering 30 min after topical administration with one drop of Carbonic anhydrase inhibitor at a pH 7.0; assay type: functional, Eye
Oryctolagus cuniculus [12] = assay: In vivo activity in normotensive rabbits (23.5+/-2.6 mmHg) for the intraocular pressure (IOP) lowering 60 min after topical administration with one drop of Carbonic anhydrase inhibitor at a pH 7.0; assay type: functional, Eye

Chain of Carbonic anhydrase 4 (P22748 whole entry): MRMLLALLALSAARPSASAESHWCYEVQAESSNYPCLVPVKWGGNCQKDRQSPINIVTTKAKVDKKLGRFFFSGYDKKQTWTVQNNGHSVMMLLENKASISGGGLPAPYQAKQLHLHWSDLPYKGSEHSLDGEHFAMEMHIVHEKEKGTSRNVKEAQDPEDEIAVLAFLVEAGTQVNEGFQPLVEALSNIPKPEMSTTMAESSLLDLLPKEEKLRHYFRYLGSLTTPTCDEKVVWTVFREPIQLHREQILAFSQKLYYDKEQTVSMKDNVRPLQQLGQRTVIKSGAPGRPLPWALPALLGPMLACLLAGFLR
Chain of Carbonic anhydrase 1 (P00915 whole entry): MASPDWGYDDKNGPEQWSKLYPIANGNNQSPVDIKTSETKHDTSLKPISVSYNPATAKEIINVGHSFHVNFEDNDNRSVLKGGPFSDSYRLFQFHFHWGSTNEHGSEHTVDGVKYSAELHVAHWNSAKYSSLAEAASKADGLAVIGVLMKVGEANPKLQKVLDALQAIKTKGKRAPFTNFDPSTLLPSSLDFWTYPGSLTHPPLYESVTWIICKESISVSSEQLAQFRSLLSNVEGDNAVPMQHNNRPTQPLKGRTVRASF

Row | Compound | Ki (Carbonic anhydrase 1) | Ki (Carbonic anhydrase 4) | further results
1 | NS(=O)(=O)c1cc(S(N)(=O)=O)c(NC(=O)CN(CCN(CCN(CC(=O)O)CC(=O)O)CC(=O)O)CC(=O)O)cc1Cl | 87 nM | 52 nM | 
2 | NS(=O)(=O)c1nnc(NC(=O)CN(CCN(CCN(CC(=O)O)CC(=O)Nc2nnc(S(N)(=O)=O)s2)CC(=O)[O-])CC(=O)[O-])s1.[Zn+2] |  | 4 nM | Change in IOP (Oryctolagus cuniculus [1]): 7.4 mmHg; Change in IOP (Oryctolagus cuniculus [2]): 9.5 mmHg
3 | NS(=O)(=O)c1nc2ccc(NC(=O)CN(CCN(CCN(CC(=O)O)CC(=O)Nc3ccc4nc(S(N)(=O)=O)sc4c3)CC(=O)O)CC(=O)O)cc2s1 | 25 nM | 6 nM | 
4 | NS(=O)(=O)c1nc2ccc(OCCOC(=O)CN(CCN(CCN(CC(=O)O)CC(=O)OCCOc3ccc4nc(S(N)(=O)=O)sc4c3)CC(=O)O)CC(=O)O)cc2s1 | 16 nM | 4 nM | 
5 | NS(=O)(=O)c1ccc(NC(=O)CN(CCN(CCN(CC(=O)O)CC(=O)O)CC(=O)O)CC(=O)O)c(I)c1 | 79 nM | 29 nM | 
6 | NS(=O)(=O)c1ccc(CCOC(=O)CN(CCN(CCN(CC(=O)O)CC(=O)OCCc2ccc(S(N)(=O)=O)cc2)CC(=O)O)CC(=O)O)cc1 | 290 nM | 115 nM | 
7 | NS(=O)(=O)c1cc(S(N)(=O)=O)c(NC(=O)CN(CCN(CCN(CC(=O)O)CC(=O)O)CC(=O)O)CC(=O)O)c(Cl)c1Cl | 58 nM | 36 nM | 
8 | Nc1ccc(S(N)(=O)=O)cc1I |  | 125 nM | 
9 | NS(=O)(=O)c1ccc(CCNC(=O)CN(CCN(CCN(CC(=O)O)CC(=O)O)CC(=O)O)CC(=O)O)cc1 | 290 nM | 36 nM | 
10 | Nc1ccc2nc(S(N)(=O)=O)sc2c1 |  | 19 nM | 
11 | NS(=O)(=O)c1nc2ccc(NC(=O)CN(CCN(CCN(CC(=O)O)CC(=O)O)CC(=O)O)CC(=O)O)cc2s1 | 36 nM | 9 nM | 
12 | NS(=O)(=O)c1ccc(NC(=O)CN(CCN(CCN(CC(=O)O)CC(=O)Nc2ccc(S(N)(=O)=O)cc2I)CC(=O)O)CC(=O)O)c(I)c1 | 70 nM | 24 nM | 
13 | Cn1nc(S(N)(=O)=O)s/c1=N\C(=O)CN(CCN(CCN(CC(=O)O)CC(=O)/N=c1/sc(S(N)(=O)=O)nn1C)CC(=O)O)CC(=O)O [listing 1 of 2 here] | 54 nM | 9 nM | 
14 | NS(=O)(=O)c1ccc(NC(=O)CN(CCN(CCN(CC(=O)O)CC(=O)Nc2ccc(S(N)(=O)=O)cc2Cl)CC(=O)O)CC(=O)O)c(Cl)c1 | 155 nM | 27 nM | 
15 | Nc1ccc(S(N)(=O)=O)cc1Br |  | 66 nM | 
16 | Nc1ccc(S(N)(=O)=O)cc1 [SULFANILAMIDE] |  | 3000 nM | 
17 | NS(=O)(=O)c1nc2ccc(OC(=O)CN(CCN(CCN(CC(=O)O)CC(=O)Oc3ccc4nc(S(N)(=O)=O)sc4c3)CC(=O)O)CC(=O)O)cc2s1 | 21 nM | 5 nM | 
18 | Cn1nc(S(N)(=O)=O)s/c1=N/C(=O)CN(CCN(CCN(CC(=O)O)CC(=O)O)CC(=O)O)CC(=O)O | 62 nM | 19 nM | 
19 | Nc1ccccc1S(N)(=O)=O |  | 1310 nM | 
20 | NS(=O)(=O)c1nc2ccc(OCCOC(=O)CN(CCN(CCN(CC(=O)O)CC(=O)O)CC(=O)O)CC(=O)O)cc2s1 | 30 nM | 5 nM | 
21 | NS(=O)(=O)c1ccc(NC(=O)CN(CCN(CCN(CC(=O)O)CC(=O)O)CC(=O)O)CC(=O)O)cc1 | 4100 nM | 180 nM | Change in IOP (Oryctolagus cuniculus [10]): 7.2 mmHg; Change in IOP (Oryctolagus cuniculus [11]): 3.1 mmHg; Change in IOP (Oryctolagus cuniculus [12]): 4.5 mmHg
22 | NS(=O)(=O)c1ccccc1NC(=O)CN(CCN(CCN(CC(=O)O)CC(=O)O)CC(=O)O)CC(=O)O | 8600 nM | 550 nM | 
23 | NS(=O)(=O)c1nnc(NC(=O)CCNC(=O)CN(CCN(CCN(CC(=O)O)CC(=O)O)CC(=O)O)CC(=O)O)s1 | 110 nM | 16 nM | 
24 | NS(=O)(=O)c1ccc(NC(=O)CN(CCN(CCN(CC(=O)O)CC(=O)O)CC(=O)O)CC(=O)O)c(Cl)c1 | 200 nM | 32 nM | 
25 | Cn1nc(S(N)(=O)=O)s/c1=N\C(=O)CN(CCN(CCN(CC(=O)O)CC(=O)/N=c1/sc(S(N)(=O)=O)nn1C)CC(=O)O)CC(=O)O [listing 2 of 2 here] | 43 nM | 5 nM | 
26 | NS(=O)(=O)c1ccc(CCO)cc1 |  | 450 nM | 
27 | NS(=O)(=O)c1cc(S(N)(=O)=O)c(NC(=O)CN(CCN(CCN(CC(=O)O)CC(=O)Nc2c(S(N)(=O)=O)cc(S(N)(=O)=O)c(Cl)c2Cl)CC(=O)O)CC(=O)O)c(Cl)c1Cl | 43 nM | 25 nM | 
28 | NS(=O)(=O)c1nc2ccc(OC(=O)CN(CCN(CCN(CC(=O)O)CC(=O)O)CC(=O)O)CC(=O)O)cc2s1 | 32 nM | 6 nM | 
29 | NS(=O)(=O)c1ccc(NNC(=O)CN(CCN(CCN(CC(=O)O)CC(=O)NNc2ccc(S(N)(=O)=O)cc2)CC(=O)O)CC(=O)O)cc1 | 9800 nM | 430 nM | 
30 | NS(=O)(=O)c1ccc(CCOC(=O)CN(CCN(CCN(CC(=O)O)CC(=O)O)CC(=O)O)CC(=O)O)cc1 | 360 nM | 190 nM | 

The remaining molecules from weak to strong by Ki (Carbonic anhydrase 4), led by results:

Row | Ki (Carbonic anhydrase 1) | Ki (Carbonic anhydrase 4) | Compound | further results
31 |  | 3200 nM | NNc1ccc(S(N)(=O)=O)cc1 | 
32 | 12000 nM | 630 nM | NS(=O)(=O)c1ccc(NNC(=O)CN(CCN(CCN(CC(=O)O)CC(=O)O)CC(=O)O)CC(=O)O)cc1 | 
33 | 7200 nM | 500 nM | NS(=O)(=O)c1cccc(NC(=O)CN(CCN(CCN(CC(=O)O)CC(=O)O)CC(=O)O)CC(=O)O)c1 | 
34 |  | 425 nM | NS(=O)(=O)c1cccc(NC(=O)CN(CCN(CCN(CC(=O)O)CC(=O)Nc2cccc(S(N)(=O)=O)c2)CC(=O)O)CC(=O)O)c1 | 
35 | 5400 nM | 330 nM | NS(=O)(=O)c1ccccc1NC(=O)CN(CCN(CCN(CC(=O)O)CC(=O)Nc1ccccc1S(N)(=O)=O)CC(=O)O)CC(=O)O | 
36 | 510 nM | 265 nM | NS(=O)(=O)c1ccc(COC(=O)CN(CCN(CCN(CC(=O)O)CC(=O)O)CC(=O)O)CC(=O)O)cc1 | 
37 |  | 180 nM | Nc1ccc(S(N)(=O)=O)cc1F | 
38 |  | 175 nM | Nc1c(S(N)(=O)=O)cc(S(N)(=O)=O)c(Cl)c1Cl | 
39 | 325 nM | 170 nM | NS(=O)(=O)c1ccc(COC(=O)CN(CCN(CCN(CC(=O)O)CC(=O)OCc2ccc(S(N)(=O)=O)cc2)CC(=O)O)CC(=O)O)cc1 | 
40 |  | 156 nM | NS(=O)(=O)c1ccc(NC(=O)CN(CCN(CCN(CC(=O)O)CC(=O)Nc2ccc(S(N)(=O)=O)cc2)CC(=O)O)CC(=O)O)cc1 [listing 1 of 2 here] | Change in IOP (Oryctolagus cuniculus [3]): 9.5 mmHg; Change in IOP (Oryctolagus cuniculus [4]): 7.5 mmHg; Change in IOP (Oryctolagus cuniculus [5]): 4.4 mmHg; Kin: 3.6 h⁻¹; Change in IOP (Oryctolagus cuniculus [6]): 6 mmHg; logD [7]: 1.456; Kin [8]: 6.5 h⁻¹; Change in IOP (Oryctolagus cuniculus [9]): 11 mmHg
41 |  | 125 nM | NCCC(=O)Nc1nnc(S(N)(=O)=O)s1 | 
42 |  | 100 nM | NS(=O)(=O)c1ccc(NC(=O)CN(CCN(CCN(CC(=O)O)CC(=O)Nc2ccc(S(N)(=O)=O)cc2)CC(=O)O)CC(=O)O)cc1 [listing 2 of 2 here] | 
43 | 63 nM | 41 nM | NS(=O)(=O)c1cc(S(N)(=O)=O)c(NC(=O)CN(CCN(CCN(CC(=O)O)CC(=O)Nc2cc(Cl)c(S(N)(=O)=O)cc2S(N)(=O)=O)CC(=O)O)CC(=O)O)cc1Cl | 
44 | 550 nM | 40 nM | NS(=O)(=O)c1ccc(CNC(=O)CN(CCN(CCN(CC(=O)O)CC(=O)O)CC(=O)O)CC(=O)O)cc1 | 
45 |  | 37 nM | NS(=O)(=O)c1ccc(CNC(=O)CN(CCN(CCN(CC(=O)O)CC(=O)NCc2ccc(S(N)(=O)=O)cc2)CC(=O)O)CC(=O)O)cc1 [listing 1 of 2 here] | 
46 | 180 nM | 29 nM | NS(=O)(=O)c1ccc(NC(=O)CN(CCN(CCN(CC(=O)O)CC(=O)O)CC(=O)O)CC(=O)O)c(F)c1 | 
47 | 96 nM | 27 nM | NS(=O)(=O)c1ccc(NC(=O)CN(CCN(CCN(CC(=O)O)CC(=O)O)CC(=O)O)CC(=O)O)c(Br)c1 | 
48 |  | 25 nM | NS(=O)(=O)c1ccc(CCNC(=O)CN(CCN(CCN(CC(=O)O)CC(=O)NCCc2ccc(S(N)(=O)=O)cc2)CC(=O)O)CC(=O)O)cc1 [listing 1 of 2 here] | 
49 | 79 nM | 21 nM | NS(=O)(=O)c1ccc(NC(=O)CN(CCN(CCN(CC(=O)O)CC(=O)Nc2ccc(S(N)(=O)=O)cc2Br)CC(=O)O)CC(=O)O)c(Br)c1 | 
50 |  | 21 nM | NS(=O)(=O)c1ccc(CNC(=O)CN(CCN(CCN(CC(=O)O)CC(=O)NCc2ccc(S(N)(=O)=O)cc2)CC(=O)O)CC(=O)O)cc1 [listing 2 of 2 here] | 
51 | 135 nM | 18 nM | NS(=O)(=O)c1ccc(NC(=O)CN(CCN(CCN(CC(=O)O)CC(=O)Nc2ccc(S(N)(=O)=O)cc2F)CC(=O)O)CC(=O)O)c(F)c1 | 
52 |  | 16 nM | NS(=O)(=O)c1ccc(CCNC(=O)CN(CCN(CCN(CC(=O)O)CC(=O)NCCc2ccc(S(N)(=O)=O)cc2)CC(=O)O)CC(=O)O)cc1 [listing 2 of 2 here] | 
53 |  | 15 nM | NS(=O)(=O)c1nc2ccc(OCCO)cc2s1 | 
54 | 102 nM | 8 nM | NS(=O)(=O)c1nnc(NC(=O)CCNC(=O)CN(CCN(CCN(CC(=O)O)CC(=O)NCCC(=O)Nc2nnc(S(N)(=O)=O)s2)CC(=O)O)CC(=O)O)s1 | 
55 |  | 7 nM | NS(=O)(=O)c1nnc(NC(=O)CN(CCN(CCN(CC(=O)O)CC(=O)Nc2nnc(S(N)(=O)=O)s2)CC(=O)O)CC(=O)O)s1 | Kin: 3.9 h⁻¹; logD [7]: 1.961; Kin [8]: 6.2 h⁻¹

From ChEMBL document CHEMBL1134204, “Carbonic anhydrase inhibitors: synthesis of sulfonamides incorporating dtpa tails and of their zinc complexes with powerful topical antiglaucoma properties” (Bioorg Med Chem Lett, 2001)
